Experimental data taken from patent US6399298B1, “Ku70—related methods” (Sloan-Kettering Institute for Cancer Research, priority 1998, dated 2002).

Assays:
[1] = system: cells derived from Ku70 knock-out mice; test: Survival experiments with cells derived from Ku70 knock-out mice; format: cell-based; conditions: Ku70 knock-out mouse cells, FIG. 12
[2] = system: cells derived from Ku80 knock-out mice; test: Survival experiments with cells derived from Ku80 knock-out mice; format: cell-based; conditions: Ku80 knock-out mouse cells, FIG. 12
[3] = system: HeLa cells expressing antisense Ku70; test: Cytotoxicity in stable HeLa cells expressing antisense Ku70 RNA (Tet-Off); format: cell-based, human; conditions: adriamycin 1 μg/ml; expression of Ku70 antisense RNA; FIG. 13
Description: Effect of (A) radiation, and (B) adriamycin on different cell types. O=HeLa controls cells; ▪=HeLa cells expressing antisense Ku70; ▴=HeLa cell expressing antisense Ku80.
Stable HeLa cells, containing human Ku70 cDNA or human Ku80 cDNA, in the antisense orientation, under the regulation of the Tet-Off™ expression system (Clonetech), were established. Upon induction of the expression system these cells should produce antisense Ku70 or Ku80 RNA, respectively. Experiments were performed showing (FIG. 13) that expression of either Ku70 or Ku80 antisense RNA increased the cytotoxic effect adriamycin by 3-5 fold at 1 μg/ml and that expression of Ku70 antisense RNA increased the cytotoxic effect of γ-radiation approximately 5 fold (at 6 Gy).

[4] = system: HeLa cells expressing antisense Ku80; test: Cytotoxicity in stable HeLa cells expressing antisense Ku80 RNA (Tet-Off); format: cell-based, human; conditions: adriamycin 1 μg/ml; expression of Ku80 antisense RNA; FIG. 13

Compound	sensitivity of cells to the agent (survival) [1]	sensitivity of cells to the agent (survival) [2]	increase of the cytotoxic effect of adriamycin [3]	increase of the cytotoxic effect of adriamycin [4]
COc1cccc2c1C(=O)c1c(O)c3c(c(O)c1C2=O)C[C@@](O)(C(=O)CO)C[C@@H]3O[C@H]1C[C@H](N)[C@H](O)[C@H](C)O1 [adriamycin]	very sensitive	very sensitive	3-5 fold	3-5 fold
bleomycin	very sensitive	very sensitive	–	–
